Measured values taken from the supplement of paper PMC10307832.

What was measured:
Test in all cases: relative viability (nuclei count vs DMSO), 5 days (fraction); higher = more cells survive
NCI-H460 = system: NCI-H460
Procedure, shortened: (§1)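 A single step with final 0.05% Triton X-100, 1% formaldehyde and 1 ug/ml Hoechst fixed the cells and stained nuclei 5 days after treatment. Lung cancer cell lines in 1536-well plates had been treated by pin tool the day after seeding with one drug alone or a fixed anchor-drug dose plus five library-drug doses (not always all listed) in √10 steps, and nuclei were counted on 4× images. Relative viability is the ratio of nuclei in treated wells to nuclei in vehicle wells, taken as the median of duplicate plates.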

NCI-H2342 = system: NCI-H2342
Procedure, shortened: as §1

EPLC-272H = system: EPLC-272H
Procedure, shortened: as §1

NCI-H2228 = system: NCI-H2228
Procedure, shortened: as §1

NCI-H322M = system: NCI-H322M
Procedure, shortened: as §1

COR-L 105 = system: COR-L 105
Procedure, shortened: as §1

NCI-H2087 = system: NCI-H2087
Procedure, shortened: as §1

ChaGo-K-1 = system: ChaGo-K-1
Procedure, shortened: as §1

NCI-H2009 = system: NCI-H2009
Procedure, shortened: as §1

NCI-H1993 = system: NCI-H1993
Procedure, shortened: as §1

SK-MES-1 = system: SK-MES-1
Procedure, shortened: as §1

NCI-H441 = system: NCI-H441
Procedure, shortened: as §1

NCI-H1975 = system: NCI-H1975
Procedure, shortened: as §1

NCI-H1792 = system: NCI-H1792
Procedure, shortened: as §1

H3255 = system: H3255
Procedure, shortened: as §1

NCI-H2085 = system: NCI-H2085
Procedure, shortened: as §1

CAL-12T = system: CAL-12T
Procedure, shortened: as §1

HCC-366 = system: HCC-366
Procedure, shortened: as §1

EKVX = system: EKVX
Procedure, shortened: as §1

NCI-H1355 = system: NCI-H1355
Procedure, shortened: as §1

HCC-827 = system: HCC-827
Procedure, shortened: as §1

## CCNC(=O)c1noc(-c2cc(C(C)C)c(O)cc2O)c1-c1ccc(CN2CCOCC2)cc1 [Luminespib] + Nc1nc2[nH]cc(CCc3ccc(C(=O)N[C@@H](CCC(=O)O)C(=O)O)cc3)c2c(=O)[nH]1 [Pemetrexed] (partner 0.2 µM)
NCI-H460; first compound 0.002 µM
  relative viability: 0.0608
NCI-H460; first compound 0.006325 µM
  relative viability: 0.0558
NCI-H460; first compound 0.02 µM
  relative viability: 0.0687
NCI-H460; first compound 0.06325 µM
  relative viability: 0.0359
NCI-H460; first compound 0.2 µM
  relative viability: 0.0287
NCI-H2342; first compound 0.002 µM
  relative viability: 0.776
NCI-H2342; first compound 0.006325 µM
  relative viability: 0.755
NCI-H2342; first compound 0.02 µM
  relative viability: 0.548
NCI-H2342; first compound 0.06325 µM
  relative viability: 0.749
NCI-H2342; first compound 0.2 µM
  relative viability: 0.454
EPLC-272H; first compound 0.002 µM
  relative viability: 0.41
EPLC-272H; first compound 0.006325 µM
  relative viability: 0.266
EPLC-272H; first compound 0.02 µM
  relative viability: 0.335
EPLC-272H; first compound 0.06325 µM
  relative viability: 0.133
EPLC-272H; first compound 0.2 µM
  relative viability: 0.113
NCI-H2228; first compound 0.002 µM
  relative viability: 0.346
NCI-H2228; first compound 0.006325 µM
  relative viability: 0.405
NCI-H2228; first compound 0.02 µM
  relative viability: 0.257
NCI-H2228; first compound 0.06325 µM
  relative viability: 0.079
NCI-H2228; first compound 0.2 µM
  relative viability: 0.136
NCI-H322M; first compound 0.002 µM
  relative viability: 0.638
NCI-H322M; first compound 0.006325 µM
  relative viability: 0.507
NCI-H322M; first compound 0.02 µM
  relative viability: 0.596
NCI-H322M; first compound 0.06325 µM
  relative viability: 0.409
NCI-H322M; first compound 0.2 µM
  relative viability: 0.376
COR-L 105; first compound 0.002 µM
  relative viability: 1.11
COR-L 105; first compound 0.006325 µM
  relative viability: 0.952
COR-L 105; first compound 0.02 µM
  relative viability: 1.18
COR-L 105; first compound 0.06325 µM
  relative viability: 0.593
COR-L 105; first compound 0.2 µM
  relative viability: 0.24
NCI-H2087; first compound 0.002 µM
  relative viability: 0.708
NCI-H2087; first compound 0.006325 µM
  relative viability: 0.627
NCI-H2087; first compound 0.02 µM
  relative viability: 0.639
NCI-H2087; first compound 0.06325 µM
  relative viability: 0.152
NCI-H2087; first compound 0.2 µM
  relative viability: 0.133
ChaGo-K-1; first compound 0.002 µM
  relative viability: 0.27
ChaGo-K-1; first compound 0.006325 µM
  relative viability: 0.253
ChaGo-K-1; first compound 0.02 µM
  relative viability: 0.253
ChaGo-K-1; first compound 0.06325 µM
  relative viability: 0.248
ChaGo-K-1; first compound 0.2 µM
  relative viability: 0.206
NCI-H2009; first compound 0.002 µM
  relative viability: 1.16
NCI-H2009; first compound 0.006325 µM
  relative viability: 0.973
NCI-H2009; first compound 0.02 µM
  relative viability: 1.17
NCI-H2009; first compound 0.06325 µM
  relative viability: 0.901
NCI-H2009; first compound 0.2 µM
  relative viability: 0.0692
NCI-H1993; first compound 0.002 µM
  relative viability: 0.566
NCI-H1993; first compound 0.006325 µM
  relative viability: 0.577
NCI-H1993; first compound 0.02 µM
  relative viability: 0.557
NCI-H1993; first compound 0.06325 µM
  relative viability: 0.284
NCI-H1993; first compound 0.2 µM
  relative viability: 0.367
SK-MES-1; first compound 0.002 µM
  relative viability: 0.962
SK-MES-1; first compound 0.006325 µM
  relative viability: 0.877
SK-MES-1; first compound 0.02 µM
  relative viability: 0.517
SK-MES-1; first compound 0.06325 µM
  relative viability: 0.153
SK-MES-1; first compound 0.2 µM
  relative viability: 0.177
NCI-H441; first compound 0.002 µM
  relative viability: 0.263
NCI-H441; first compound 0.006325 µM
  relative viability: 0.309
NCI-H441; first compound 0.02 µM
  relative viability: 0.248
NCI-H441; first compound 0.06325 µM
  relative viability: 0.153
NCI-H441; first compound 0.2 µM
  relative viability: 0.116
NCI-H1975; first compound 0.002 µM
  relative viability: 0.315
NCI-H1975; first compound 0.006325 µM
  relative viability: 0.307
NCI-H1975; first compound 0.02 µM
  relative viability: 0.34
NCI-H1975; first compound 0.06325 µM
  relative viability: 0.137
NCI-H1975; first compound 0.2 µM
  relative viability: 0.153
NCI-H1792; first compound 0.002 µM
  relative viability: 0.816
NCI-H1792; first compound 0.006325 µM
  relative viability: 0.615
NCI-H1792; first compound 0.02 µM
  relative viability: 0.117
NCI-H1792; first compound 0.06325 µM
  relative viability: 0.0474
NCI-H1792; first compound 0.2 µM
  relative viability: 0.0496
H3255; first compound 0.002 µM
  relative viability: 0.579
H3255; first compound 0.006325 µM
  relative viability: 0.497
H3255; first compound 0.02 µM
  relative viability: 0.529
H3255; first compound 0.06325 µM
  relative viability: 0.536
H3255; first compound 0.2 µM
  relative viability: 0.335
NCI-H2085; first compound 0.002 µM
  relative viability: 0.908
NCI-H2085; first compound 0.006325 µM
  relative viability: 0.893
NCI-H2085; first compound 0.02 µM
  relative viability: 0.698
NCI-H2085; first compound 0.06325 µM
  relative viability: 0.309
NCI-H2085; first compound 0.2 µM
  relative viability: 0.261
CAL-12T; first compound 0.002 µM
  relative viability: 1.23
CAL-12T; first compound 0.006325 µM
  relative viability: 0.988
CAL-12T; first compound 0.02 µM
  relative viability: 0.906
CAL-12T; first compound 0.06325 µM
  relative viability: 0.146
CAL-12T; first compound 0.2 µM
  relative viability: 0.124
HCC-366; first compound 0.002 µM
  relative viability: 0.169
HCC-366; first compound 0.006325 µM
  relative viability: 0.156
HCC-366; first compound 0.02 µM
  relative viability: 0.366
HCC-366; first compound 0.06325 µM
  relative viability: 0.0354
HCC-366; first compound 0.2 µM
  relative viability: 0.0333
EKVX; first compound 0.002 µM
  relative viability: 0.417
EKVX; first compound 0.006325 µM
  relative viability: 0.255
EKVX; first compound 0.02 µM
  relative viability: 0.408
EKVX; first compound 0.06325 µM
  relative viability: 0.258
EKVX; first compound 0.2 µM
  relative viability: 0.115
NCI-H1355; first compound 0.002 µM
  relative viability: 1.12
NCI-H1355; first compound 0.006325 µM
  relative viability: 1.02
NCI-H1355; first compound 0.02 µM
  relative viability: 0.627
NCI-H1355; first compound 0.06325 µM
  relative viability: 0.895
NCI-H1355; first compound 0.2 µM
  relative viability: 0.14
HCC-827; first compound 0.002 µM
  relative viability: 0.22
HCC-827; first compound 0.006325 µM
  relative viability: 0.27
HCC-827; first compound 0.02 µM
  relative viability: 0.236
HCC-827; first compound 0.06325 µM
  relative viability: 0.159
HCC-827; first compound 0.2 µM
  relative viability: 0.158
